In article PMC6347603, “N^+-C-H···O Hydrogen bonds in protein-ligand complexes” (Scientific Reports, 2019):
pIC50, pKd: −log10 of the molar value.

Tests used:
[1] = molecular target: T1, GLP recombinant protein (Homo sapiens, UniProt Q9H9B1); test: Isothermal titration calorimetry (ITC) of GLP inhibitors binding to GLP; conditions: 25 °C, 20 mM Tris pH 8.0, 150 mM NaCl, 2% DMSO, 50 μM AdoMet; for pKd: 10 μM GLP, 100 μM inhibitor, one-site binding model, read-out: dissociation constant KD (ITC); for −TΔS (ITC): calculated from ΔG = ΔH − TΔS
T1 construct: purchased Active Motif, Inc. 31920
T1 sequence (Q9H9B1 1-1298): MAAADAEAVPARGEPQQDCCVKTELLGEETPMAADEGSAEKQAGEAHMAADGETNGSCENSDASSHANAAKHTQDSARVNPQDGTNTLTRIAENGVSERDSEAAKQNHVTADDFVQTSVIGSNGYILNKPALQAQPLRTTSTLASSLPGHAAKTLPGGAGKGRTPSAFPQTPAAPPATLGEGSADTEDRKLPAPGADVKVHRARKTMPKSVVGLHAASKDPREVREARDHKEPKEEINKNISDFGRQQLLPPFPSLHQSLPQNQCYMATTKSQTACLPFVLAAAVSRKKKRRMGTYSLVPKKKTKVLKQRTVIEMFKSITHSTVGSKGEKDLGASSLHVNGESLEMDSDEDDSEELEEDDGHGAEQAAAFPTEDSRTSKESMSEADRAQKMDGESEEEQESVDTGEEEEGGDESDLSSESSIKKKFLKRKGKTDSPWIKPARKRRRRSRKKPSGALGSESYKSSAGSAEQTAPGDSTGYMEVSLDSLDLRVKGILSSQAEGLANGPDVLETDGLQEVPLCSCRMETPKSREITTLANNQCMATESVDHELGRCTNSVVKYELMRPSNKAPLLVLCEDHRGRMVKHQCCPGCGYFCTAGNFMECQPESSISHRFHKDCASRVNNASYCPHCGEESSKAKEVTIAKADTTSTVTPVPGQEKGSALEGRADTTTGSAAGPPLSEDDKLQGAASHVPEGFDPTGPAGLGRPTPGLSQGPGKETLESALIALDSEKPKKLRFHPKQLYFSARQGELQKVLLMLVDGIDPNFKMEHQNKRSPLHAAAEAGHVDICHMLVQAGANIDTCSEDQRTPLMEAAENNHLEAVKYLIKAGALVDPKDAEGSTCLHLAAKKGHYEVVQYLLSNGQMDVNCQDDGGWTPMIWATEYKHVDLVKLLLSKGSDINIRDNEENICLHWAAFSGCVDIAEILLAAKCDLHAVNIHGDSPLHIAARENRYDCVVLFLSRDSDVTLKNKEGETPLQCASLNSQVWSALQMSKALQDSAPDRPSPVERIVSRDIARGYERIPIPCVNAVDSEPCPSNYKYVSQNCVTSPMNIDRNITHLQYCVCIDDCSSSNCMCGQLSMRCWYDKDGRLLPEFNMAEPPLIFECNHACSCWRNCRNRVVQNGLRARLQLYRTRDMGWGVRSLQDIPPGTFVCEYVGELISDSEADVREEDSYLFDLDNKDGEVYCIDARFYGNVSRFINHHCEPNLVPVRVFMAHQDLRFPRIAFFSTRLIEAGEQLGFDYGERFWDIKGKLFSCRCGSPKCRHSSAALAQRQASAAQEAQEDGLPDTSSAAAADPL
Experimental: A GLP recombinant protein solution (Catalog #31920, Active Motif, Inc.) was concentrated by ultrafiltration and the buffer was replaced with test buffer (20 mM Tris pH 8.0, 150 mM NaCl, 2% DMSO and 50 μM AdoMet). ITC measurements of GLP inhibitors binding to the GLP were recorded at 25 °C using a MicroCal PEAQ-ITC microcalorimeter (Malvern Panalytical) in the test buffer. The titrations were performed using 10 μM GLP solution in the sample cell and 100 μM inhibitor solution in the syringe. A typical experiment consisted of 19 injections under the following parameters: one injection of 0.4 μL followed by 18 injections of 2.0 μL; 150 s spacing between injections; 750 rpm stirring speed; and reference power set to 5 μcal s^−1. The heat of dilution of the ligand into the buffer measured independently was essentially similar to the heat signal obtained at the end of the titration; so the signal of the last injection was used as the background heat signal. The experimental data were analyzed using the MicroCal PEAQ-ITC Analysis software (Malvern Panalytical), and fitted using the one-site binding model. Values of ΔG, KD, and −TΔS were calculated using the thermodynamic relationships, ΔG = −RT lnKa, KD = 1/Ka, and ΔG = ΔH − TΔS.
Figure S20. Determination of the disassociation constant and thermodynamic parameters of 14a–14c by isothermal titration calorimetry (ITC). (A–C) The binding of (A) 14a, (B) 14b and (C) 14c to GLP are measured by ITC. The titrations were conducted in buffer containing 20 mM Tris pH 8.0, 150 mM NaCl, 2% DMSO and 50 μM AdoMet. The sample chamber and syringe were filled with 10 μM GLP and 100 μM inhibitor, respectively. (D) Summary of disassociation constant and thermodynamic parameter profiles of 14a–14c.

[2] = molecular target: T2, G9a-like protein (GLP) (Homo sapiens, UniProt Q9H9B1); test: GLP activity assay (GLP Chemiluminescent Assay Kit); format: biochemical; conditions: for pIC50: 2 μM SAM, 40 ng GLP, 120 min, room temperature, mean values of at least three experiments, read-out: In vitro GLP-inhibitory activity IC50
T2 construct: purchased BPS Bioscience, Inc. 53007
T2 sequence (Q9H9B1 1-1298): T1 sequence (Q9H9B1 1-1298)
Experimental: The GLP activity assay was carried out using a GLP Chemiluminescent Assay Kit (Catalog #53007, BPS Bioscience, Inc.). Microwells were rehydrated by adding 200 μL of tris buffered saline with Tween 20 (TBS-T: 1x TBS, pH = 8.0, containing 0.05% Tween-20) to every well, followed by incubation at room temperature for 45 minutes. After removing TBS-T, the inhibitors were incubated in the presence of 2 μM SAM and 40 ng of GLP in the supplied buffer on the microwells of (120 min, room temperature, total volume: 50 μL). After the enzymatic reaction, every well was washed three times with TBS-T (100 μL) and blocked for 10 min with blocking buffer. Then, 100 μL of primary anti-body solution (1:400 dilution) were added to the microwells, followed by incubation (2 h). The wells were probed with the primary antibody, washed three times with TBS-T (100 μL), incubated (2 h, room temperature) with sheep secondary anti-body (1:1000 diluted), and again washed three times with TBS-T (100 μL). The chemiluminescence of the wells, to which detection reagents were added, was measured on a chemiluminescence reader (ARVO X3 Multilabel Plate Reader), and the values of % inhibition were calculated from the chemiluminescence readings of inhibited wells relative to those of control wells.

SMILES | ΔH (ITC) [1] | pKd [1] | −TΔS (ITC) [1] | pIC50 [2] | GLP inhibition (result in words) ([2]; up to 3 μM)
COc1cc2nc(NCCCN)nc(NC3CCN(Cc4ccccc4)CC3)c2cc1OC [Compound 14c] | -7.04 kcal/mol | 6.03 | -1.19 kcal/mol | 5.84 | –
COc1cc2nc(NCCCN(C)C)nc(NC3CCN(Cc4ccccc4)CC3)c2cc1OC [Compound 14a] | -10.7 kcal/mol | 6.77 | 1.42 kcal/mol | 6.81 | –
CNCCCNc1nc(NC2CCN(Cc3ccccc3)CC2)c2cc(OC)c(OC)cc2n1 [Compound 14b, N^4-(1-Benzylpiperidin-4-yl)-6,7-dimethoxy-N^2-[3-(methylamino)propyl]quinazoline-2,4-diamine] | -8.58 kcal/mol | 6.21 | 0.10 kcal/mol | 6.18 | –
COc1cc2nc(NCCCC(C)C)nc(NC3CCN(Cc4ccccc4)CC3)c2cc1OC [Compound 14d] | – | – | – | – | did not show any GLP inhibition
